The values below come from patent US9005670B2, “Use of histone acetyltransferase inhibitors as novel anti-cancer therapies” (The Johns Hopkins University, priority 2010, dated 2015).

The structures appear in SMILES notation. Some results are limits rather than exact numbers.

In one data set the test system is NIH3T3 cells. As to the kind of experiment: NIH3T3 cell proliferation. The format is cell-based. As for the experimental part:
Cells were treated for 24 hours and proliferation was measured via ^3H-thymidine incorporation pre- and post-treatment. Data for each cell line were normalized to ^3H counts measured pre-treatment. […] Ac-DDDD-Tat is a control peptide for Lys-CoA-Tat. WM35, WM983A, and 1205Lu are melanoma cell lines representing three stages of cancer progression: radial, vertical, and metastatic, respectively.

For data set [1], the system named is melanoma cell lines from varying stages of progression. As to the kind of experiment: 3H-thymidine incorporation, melanoma lines of varying stages. The format is cell-based. The note with it: 24 hours. How it is done: Proliferation was measured via ^3H-thymidine incorporation.
A general note: Uptake of a labelled nucleoside into DNA is a usual measure of proliferation.

Another data set concerns the target T1, Sas2/4/5 complex (Saccharomyces cerevisiae, UniProt P40963).
T1 construct: made in house; host or cells: E. coli BL21-CodonPlus(DE3)-RIL
As to the kind of experiment: SAS complex direct radioactive HAT assay. As to conditions: 10 μM compound; read-out: Percent inhibition of acetyltransferase, Sas. The data set is classed as biochemical. As for the experimental part: (§1) PCAF reactions were performed in 100 mM HEPES, pH 7.9, and contained 200 μM TPP, 5 mM MgCl2, 1 mM DTT, 50 mM NaCl, 0.05 mg/mL BSA, 200 μM NAD, 2.4 mM α-KG, 30 μM acetyl-CoA, 0.037 units α-KGDH, 3.3% DMSO, and 10 μM inhibitor. Reactions took place at 30° C. Reactions were initiated by addition of 10 nM PCAF and were followed at 340 nm over the linear portion of the curve below 10% turnover. AANAT reactions were performed in 100 mM NH4 OAc, pH 6.8, and contained 200 μM TPP, 5 mM MgCl2, 1 mM DTT, 50 mM NaCl, 0.05 mg/mL BSA, 200 μM NAD, 2.4 mM α-KG, 200 μM AcCoA, 0.1 units α-KGDH, 3.3% DMSO, and 10 μM inhibitor. Reactions took place at 25° C. Reactions were initiated with addition of 65 nM AANAT, and followed at 340 nm, as above. Percent inhibition values were compared to those with p300, which were repeated using the protocol given above. […]
(§2) HAT assays with yeast GCN5, SAS complex, MOZ, and Rtt109/Vps75 complex used the direct radioactive assay described above. […] The amount of enzyme used in each assay was estimated by comparing Coomassie Blue staining of samples with bovine serum albumin standards, analyzed by SDS-PAGE. […] The rate of ^14C-incorporation into histone H3 was quantified by autoradiography. […]

Another data set concerns WM983A melanoma cells. As to the kind of experiment: 3H-thymidine incorporation, WM983A. The note with it: Homo sapiens, read-out: IC50 (proliferation, 3H-thymidine incorporation).
Another data set has as its system H247 glioblastoma cells. As to the kind of experiment: AlamarBlue growth inhibition, H247. The format is cell-based. As to conditions: H247, 72 hours. How it is done:
(§3) Dose response curves were generated using the AlamarBlue® assay (Invitrogen, Carlsbad, Calif.).
(§4) When inhibition was assessed using the AlamarBlue® assay (Invitrogen, Carlsbad, Calif.), cells were initially seeded at 500 cells per well in a 96-well plate. AlamarBlue® is a non-toxic reagent that measures cellular metabolic activity. Its main ingredient is resazurin, a non-fluorescent indicator dye that is reduced to bright red-fluorescent resorufin in metabolically active cells. AlamarBlue® was added to growth medium at 1/10 of the total volume (e.g., 20 μl in 200 μl total volume). […] Fluorescence reading was taken from the same plate every day for 5 days to ensure that the saturation point was not reached. Fluorescence intensity is proportional to the number of live cells in the plate.
(The colour change of resazurin is a common sign of viable cells or microbes.)

In data set [2] the target is T2, MOZ histone acetyltransferase (Homo sapiens, UniProt Q92794).
T2 construct: made in house
As to the kind of experiment: MOZ direct radioactive HAT assay. The data set is classed as biochemical. As to conditions: 10 μM compound; read-out: Percent inhibition of acetyltransferase, Moz. As for the experimental part: as §1, §2

In another data set the test system is WM35 melanoma cells. As to the kind of experiment: apoptosis, annexin V and propidium iodide FACS. The format is cell-based, human. The note with it: 72 hours, low serum concentrations. As for the experimental part:
FIG. 14A includes scatter plots. […] WM35 melanoma cells were also treated with camptothecin as a positive control for apoptosis. FIGS. 14B and 14C include images of the treated cells stained for senescence-associated beta galactosidase.

In another data set the test system is U87 glioblastoma cells. As to the kind of experiment: AlamarBlue growth inhibition, U87. The format is cell-based. The note with it: U87, 72 hours. As for the experimental part: as §3, §4
Data set [3] is described as follows: reaction with beta-mercaptoethanol (absorbance spectrum). The data set is classed as physicochemical. As to conditions: 10 mM beta-mercaptoethanol, up to one hour.
A further data set concerns LN382 glioblastoma cells. As to the kind of experiment: AlamarBlue growth inhibition, LN382. The note with it: LN382, 72 hours. The data set is classed as cell-based. How it is done:
as §3, §4

In a further data set the test system is Mel-1 melanoma cells. As to the kind of experiment: combination with chemotherapy, total cell number. The data set is classed as cell-based. As to conditions: 2 μM C646, 24 hours before chemotherapy agent. How it is done: The cells were grown for 24 hours in medium. The cells were given fresh medium and either 1 μM of cisplatin or 200 μM of temozolamide was added. Total cell number was counted on Day 0, at 24 hours, and 48 hours after addition of cisplatin or temozolamide.
After 24 hours, the treated and mock-treated cells were given fresh medium, and the cells were treated with cisplatin or temozolamide for 48 hours.

Another data set deals with T3, yeast GCN5 (Saccharomyces cerevisiae, UniProt Q03330).
T3 construct: made in house
As to the kind of experiment: GCN5 direct radioactive HAT assay. The data set is classed as biochemical. As to conditions: 10 μM compound; read-out: Percent inhibition of acetyltransferase, GCN5. How it is done:
as §1, §2

T1 sequence (P40963 whole entry): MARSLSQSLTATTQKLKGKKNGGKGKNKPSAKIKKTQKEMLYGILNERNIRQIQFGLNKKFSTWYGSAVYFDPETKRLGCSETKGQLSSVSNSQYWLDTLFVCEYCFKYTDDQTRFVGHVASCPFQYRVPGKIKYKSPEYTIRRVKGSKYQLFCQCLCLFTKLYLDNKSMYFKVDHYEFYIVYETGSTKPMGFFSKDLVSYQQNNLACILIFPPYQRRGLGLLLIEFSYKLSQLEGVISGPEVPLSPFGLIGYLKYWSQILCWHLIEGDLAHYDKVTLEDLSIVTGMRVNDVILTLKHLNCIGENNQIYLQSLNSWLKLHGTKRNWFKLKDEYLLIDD
T1 sequence (Q04003 whole entry partner): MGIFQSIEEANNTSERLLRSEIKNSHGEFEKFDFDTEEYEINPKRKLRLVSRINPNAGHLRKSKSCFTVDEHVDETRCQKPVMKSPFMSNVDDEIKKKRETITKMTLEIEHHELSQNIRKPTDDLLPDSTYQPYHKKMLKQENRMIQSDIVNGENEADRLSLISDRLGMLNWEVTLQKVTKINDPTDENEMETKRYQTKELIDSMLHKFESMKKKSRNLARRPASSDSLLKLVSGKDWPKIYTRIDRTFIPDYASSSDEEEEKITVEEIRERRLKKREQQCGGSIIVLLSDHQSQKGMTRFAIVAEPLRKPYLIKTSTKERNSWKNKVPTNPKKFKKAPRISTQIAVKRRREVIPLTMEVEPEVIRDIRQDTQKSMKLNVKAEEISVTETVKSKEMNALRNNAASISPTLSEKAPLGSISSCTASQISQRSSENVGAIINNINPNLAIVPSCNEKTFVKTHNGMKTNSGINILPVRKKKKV
T1 sequence (Q99314 whole entry partner): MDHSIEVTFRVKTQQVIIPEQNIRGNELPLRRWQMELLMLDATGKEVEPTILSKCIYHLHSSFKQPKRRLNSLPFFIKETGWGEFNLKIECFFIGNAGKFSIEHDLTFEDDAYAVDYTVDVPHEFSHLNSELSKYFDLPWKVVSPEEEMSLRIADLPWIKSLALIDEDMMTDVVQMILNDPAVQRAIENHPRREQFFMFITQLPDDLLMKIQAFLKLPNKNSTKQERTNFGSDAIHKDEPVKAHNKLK
T3 sequence (Q03330 whole entry): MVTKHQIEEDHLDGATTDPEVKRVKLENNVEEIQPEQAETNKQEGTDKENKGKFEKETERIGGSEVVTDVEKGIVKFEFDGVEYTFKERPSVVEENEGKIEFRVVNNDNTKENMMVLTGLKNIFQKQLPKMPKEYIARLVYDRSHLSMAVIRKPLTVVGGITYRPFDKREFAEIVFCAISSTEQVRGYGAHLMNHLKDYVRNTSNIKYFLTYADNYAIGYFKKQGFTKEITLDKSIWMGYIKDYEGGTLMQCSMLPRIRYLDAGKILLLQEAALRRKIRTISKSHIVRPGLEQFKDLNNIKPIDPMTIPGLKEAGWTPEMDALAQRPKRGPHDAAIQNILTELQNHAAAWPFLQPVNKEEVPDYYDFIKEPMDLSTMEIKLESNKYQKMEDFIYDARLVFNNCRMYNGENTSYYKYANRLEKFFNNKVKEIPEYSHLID
T2 sequence (Q92794 497-780 limits assumed): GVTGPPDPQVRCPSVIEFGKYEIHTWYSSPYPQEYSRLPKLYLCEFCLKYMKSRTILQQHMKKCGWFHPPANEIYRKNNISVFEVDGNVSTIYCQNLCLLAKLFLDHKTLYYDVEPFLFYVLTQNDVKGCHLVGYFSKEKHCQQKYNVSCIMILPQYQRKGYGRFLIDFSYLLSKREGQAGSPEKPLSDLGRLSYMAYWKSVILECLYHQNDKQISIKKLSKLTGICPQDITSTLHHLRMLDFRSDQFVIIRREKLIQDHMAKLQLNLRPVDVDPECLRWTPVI

As for `CC1=NN(c2ccc(C(=O)O)cc2)C(=O)C1=Cc1ccc(-c2cc(C)c(C)cc2[N+](=O)[O-])o1` [Compound C646, 4-(4,5-dihydro-3-methyl-4-((5-(4,5-dimethyl-2-nitrophenyl)furan-2-yl)methylene)-5-oxopyrazol-1-yl)benzoic acid], the “effect on cell proliferation” value in the data set on NIH3T3 cells was “does not have a significant inhibitory effect”. Also, in [1], the 3H-thymidine incorporation result is “reduced ^3H-thymidine incorporation”. For the same molecule, the inhibition at 10 µM (on Sas2/4/5 complex; in data set [2]; at yeast GCN5) was less than 10% in each case. Besides, the IC50 in the data set with WM983A melanoma cells is 10 to 20 µM; with H247 glioblastoma cells, 14.4 µM; with U87 glioblastoma cells, 15.1 µM; in the data set on LN382 glioblastoma cells it was 35.5 µM. In the data set on WM35 melanoma cells, the apoptosis entry is reported as “induced WM35 cell apoptosis”. The “reaction with thiol (adduct formation)” value in data set [3] was “no evidence of reaction”. Besides, the sensitization to chemotherapy entry in the data set on Mel-1 melanoma cells is on record as “sensitized the melanoma cells to temozolamide”.

What is called inhibition is the share of the control response that was lost under treatment.
